# Data reported in patent publication US20110112103A1, “5-HYDROXYPYRIMIDINE-4-CARBOXAMIDE COMPOUND” (DAIICHI SANKYO COMPANY, LIMITED, priority 2008, published 2011).
# Test system: human liver cancer-derived cell line Hep3B
# Assay: in vitro erythropoietin (EPO) induction activity in Hep3B cells, EPO ELISA of culture supernatant
# Assay type: cell-based
# Settings: test compound 12.5 μM, 24 hours at 37° C., multiple against EPO concentration in control (0.5% DMSO)
# Procedure: The in vitro erythropoietin (EPO) induction activity of test compounds was evaluated using human liver cancer-derived cell line Hep3B (ATCC, Manassas, Va.). Hep3B cells were cultured overnight at 37° C. in Dulbecco's Modified Eagle's Medium (DMEM) in the presence of 10% fetal bovine serum (FBS) (24-well plate, 1.0×10^5 cells/well). After replacing with fresh DMEM (+10% FBS) containing a test compound dissolved in 0.5% dimethyl sulfoxide (DMSO) (prepared to a concentration of 12.5 μM) or a solvent control (0.5% DMSO), the cells were cultured for 24 hours at 37° C. After recovering the culture supernatant, EPO concentration in the culture supernatant was quantified using a human EPO ELISA kit (StemCell Technologies). The compounds of Examples 1, 2, 5, 20, 43, 56, 100, 103, 109, 167, 173, 181, 193 and 198 were used for the test compounds. The EPO concentration of each Example was expressed as a multiple against the EPO concentration in the control.
row,Structure (SMILES),fold induction at 12.5 µM
1,"Cc1nc(CC2CCN(c3ccc(-c4cccnc4)cc3)CC2)nc(C(=O)NCC(=O)O)c1O [Example 103, ({[5-Hydroxy-6-methyl-2-({1-[4-(pyridin-3-yl)phenyl]piperidin-4-yl}methyl)pyrimidin-4-yl]carbonyl}amino)acetic acid]",100
2,"Cc1nc(C[C@H]2OC[C@H](c3ccc(-c4ccccc4)cc3)CO2)nc(C(=O)NCC(=O)O)c1O [Example 198, {[(2-{[trans-5-(Biphenyl-4-yl)-1,3-dioxan-2-yl]methyl}-5-hydroxy-6-methylpyrimidin-4-yl)-carbonyl]amino}acetic acid]",108
3,"Cc1nc(Cc2cnc(-c3ccc(C(C)(C)C)cc3)nc2)nc(C(=O)NCC(=O)O)c1O [Example 181, {[(2-{[2-(4-tert-Butylphenyl)pyrimidin-5-yl]methyl}-5-hydroxy-6-methylpyrimidin-4-yl)-carbonyl]amino}acetic acid]",155
4,"Cc1nc(CC2CCN(c3ccc(C(F)(F)F)cc3)CC2)nc(C(=O)NCC(=O)O)c1O [Example 20, ({[5-Hydroxy-6-methyl-2-({1-[4-(trifluoromethyl)phenyl]piperidin-4-yl}methyl)pyrimidin-4-yl]carbonyl}amino)acetic acid]",127
5,"Cc1nc(CC2CCN(c3ccc(-c4nccs4)cc3)CC2)nc(C(=O)NCC(=O)O)c1O [Example 109, ({[5-Hydroxy-6-methyl-2-({1-[4-(1,3-thiazol-2-yl)phenyl]piperidin-4-yl}methyl)pyrimidin-4-yl]carbonyl}amino)acetic acid]",142
6,"Cc1nc(CC2=CCN(c3ccc(C(C)(C)C)cc3)CC2)nc(C(=O)NCC(=O)O)c1O [Example 167, {[(2-{[1-(4-tert-Butylphenyl)-1,2,3,6-tetrahydropyridin-4-yl]methyl}-5-hydroxy-6-methylpyrimidin-4-yl)carbonyl]amino}acetic acid]",225
7,"Cc1nc(Cc2ccc(-c3ccc(C(C)(C)C)cc3)nc2)nc(C(=O)NCC(=O)O)c1O [Example 173, {[(2-{[6-(4-tert-Butylphenyl)pyridin-3-yl]methyl}-5-hydroxy-6-methylpyrimidin-4-yl)-carbonyl]amino}acetic acid]",184
8,Cc1nc(CC2CCN(c3ccc(C(C)(C)C)cc3)CC2)nc(C(=O)NCC(=O)O)c1O [Example 1],98
9,"Cc1nc(CC2CCN(c3ccc(-c4ccccn4)cc3)CC2)nc(C(=O)NCC(=O)O)c1O [Example 100, ({[5-Hydroxy-6-methyl-2-({1-[4-(pyridin-2-yl)phenyl]piperidin-4-yl}methyl)pyrimidin-4-yl]carbonyl}amino)acetic acid]",104
10,"Cc1nc(CC2CCN(c3ccccc3)CC2)nc(C(=O)NCC(=O)O)c1O [Example 2, [({5-Hydroxy-6-methyl-2-[(1-phenylpiperidin-4-yl)methyl]pyrimidin-4-yl}carbonyl)amino]acetic acid]",37
11,"CSc1nc(CC2CCN(c3ccc(C(C)(C)C)cc3)CC2)nc(C(=O)NCC(=O)O)c1O [Example 193, ({[2-{[1-(4-tert-Butylphenyl)piperidin-4-yl]methyl}-5-hydroxy-6-(methylsulfanyl)pyrimidin-4-yl]carbonyl}amino)acetic acid]",147
12,"Cc1nc(CC2CCN(c3ccc(Cc4ccccc4)cc3)CC2)nc(C(=O)NCC(=O)O)c1O [Example 56, {[(2-{[1-(4-Benzylphenyl)piperidin-4-yl]methyl}-5-hydroxy-6-methylpyrimidin-4-yl)carbonyl]amino}acetic acid]",158
13,"Cc1nc(CC2CCN(c3ccc(F)cc3)CC2)nc(C(=O)NCC(=O)O)c1O [Example 5, {[(2-{[1-(4-Fluorophenyl)piperidin-4-yl]methyl}-5-hydroxy-6-methylpyrimidin-4-yl)carbonyl]amino}acetic acid]",29
14,"Cc1nc(CC2CCN(c3ccc(-c4ccccc4)cc3)CC2)nc(C(=O)NCC(=O)O)c1O [Example 43, {[(2-{[1-(Biphenyl-4-yl)piperidin-4-yl]methyl}-5-hydroxy-6-methylpyrimidin-4-yl)carbonyl]amino}acetic acid]",262

# Test system: not given
# Assay: not given
# Settings: not given
row,melting point [°C],Structure (SMILES)
1,209,"Cc1nc(C[C@H]2OC[C@H](c3ccc(F)cc3)CO2)nc(C(=O)NCC(=O)O)c1O [Example 196, {[(2-{[trans-5-(4-Fluorophenyl)-1,3-dioxan-2-yl]methyl}-5-hydroxy-6-methylpyrimidin-4-yl)carbonyl]amino}acetic acid]"
2,140 to 141,"Cc1nc(CC2(C)CCN(c3ccc(F)cc3)CC2)nc(C(=O)NCC(=O)O)c1O [Example 186, {[(2-{[1-(4-Fluorophenyl)-4-methylpiperidin-4-yl]methyl}-5-hydroxy-6-methylpyrimidin-4-yl)carbonyl]amino}acetic acid]"
